This is an account of results in PubChem BioAssay (NCI).

Where “and” joins values, the source holds several entries; their conditions need not be identical. Equal values may be shown once.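 Values below derive from 48-hour exposures of cells grown in 96-well plates, with endpoints linearly interpolated between the two concentrations bracketing the appropriate inhibition level. GI50 is the concentration that inhibits growth by half. TGI is the concentration that stops growth completely.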

Some test systems named below: RXF 393 renal; HCT-15 colon; UACC-257 melanoma; KM12 colon; SNB-78 CNS; DMS 114 small cell lung; KM20L2 colon; SK-MEL-28 melanoma.
Holding throughout (experiment): NCI tumour cell line growth inhibition, 48 h

Regarding `COC(=O)C(C(=O)C(=O)NC1=C(Cl)C(=O)c2ccccc2C1=O)c1csc(-n2nc(-c3ccccc3)cc2-c2ccccc2)n1` (centres undefined), the TGI with RXF 393 renal, with HCT-15 colon, with UACC-257 melanoma, with KM12 colon, in the assay on SNB-78 CNS and in the assay on DMS 114 small cell lung was above 100 µM throughout. For the same compound, in the assay with KM20L2 colon, the TGI was above 100 µM.
On to `O=c1c2ccccc2nc(-c2ccc(Br)cc2)n1NC1OC(CO)C(O)C(O)C1O` (centres undefined), for which the TGI in the assay on SK-MEL-28 melanoma, in the assay with HCT-15 colon, with UACC-257 melanoma, in the assay with KM12 colon, in the assay on SNB-78 CNS and in the assay with DMS 114 small cell lung was above 100 µM each time. In addition, the TGI with KM20L2 colon is above 100 µM.
Consider `C/C=C/C=N/N(C(=O)c1cc([N+](=O)[O-])cc([N+](=O)[O-])c1)C1=NC(c2ccccc2)C(c2ccccc2)=NN1` (centres undefined), for which the TGI in the assay on SK-MEL-28 melanoma was above 100 µM; with RXF 393 renal, above 100 µM; in the assay with HCT-15 colon, above 100 µM; with UACC-257 melanoma it was 70.8 µM; with KM12 colon, above 100 µM; in the assay with SNB-78 CNS, above 100 µM. Besides, the TGI with DMS 114 small cell lung amounted to 48.4 µM; in the assay with KM20L2 colon it was 93.9 µM.
With `NC(=O)N/N=C(\C(=O)C(=O)Nc1ccc(Cl)c(C(F)(F)F)c1)c1nc2ccc(C(=O)c3ccccc3)cc2[nH]c1=O`, the TGI with SK-MEL-28 melanoma, with RXF 393 renal, with HCT-15 colon, in the assay with UACC-257 melanoma, with KM12 colon and in the assay with SNB-78 CNS was above 100 µM each time. Moreover, the TGI in the assay on DMS 114 small cell lung and in the assay on KM20L2 colon was above 100 µM each time.
Consider `CCC(C)OC(=O)C1C2CCC(O2)C1C(=O)O` (centres undefined), for which the TGI in the assay on SK-MEL-28 melanoma is above 100 µM; with RXF 393 renal, above 56.2 µM; with HCT-15 colon, above 56 µM; in the assay with UACC-257 melanoma, above 100 µM; in the assay with KM12 colon, above 100 µM; with SNB-78 CNS, above 100 µM. The TGI was above 56.4 µM in the assay on DMS 114 small cell lung and above 63.5 µM in the assay on KM20L2 colon.
In the case of `O=C(O)c1ccc(O)c(N=Nc2cc(S(=O)(=O)O)c3ccccc3c2O)c1`, the TGI in the assay with SK-MEL-28 melanoma was above 100 µM; in the assay with RXF 393 renal it was above 100 µM; in the assay on HCT-15 colon it was above 10 µM; with UACC-257 melanoma, above 10 µM; with KM12 colon, above 100 µM; in the assay on SNB-78 CNS, above 100 µM. Further, the TGI with DMS 114 small cell lung and in the assay on KM20L2 colon was above 100 µM each time.
In the case of `COC(=O)C(C(=O)C(=O)Nc1ccccc1C(C)=O)c1nc2ccc(Cl)cc2[nH]c1=O` (centres undefined), the TGI in the assay on SK-MEL-28 melanoma, in the assay with RXF 393 renal, in the assay on HCT-15 colon, in the assay on UACC-257 melanoma, with KM12 colon and in the assay with SNB-78 CNS was above 100 µM throughout. For the same compound, the TGI with DMS 114 small cell lung and in the assay with KM20L2 colon was above 100 µM in each case.
Take `ClC1CCC2OOC1O2` (centres undefined): the TGI in the assay with SK-MEL-28 melanoma, with RXF 393 renal, with HCT-15 colon, in the assay with UACC-257 melanoma, with KM12 colon and in the assay with SNB-78 CNS was above 100 µM throughout. Moreover, the TGI in the assay with DMS 114 small cell lung and in the assay on KM20L2 colon was above 100 µM each time.
With `COc1cc2ccc3c4c(OC)cc(OC)c(OC)c4c(=O)n(C)c3c2cc1OC`, the GI50 is 8.01 µM in the assay on SK-MEL-28 melanoma; 3.44 µM in the assay on RXF 393 renal; 1.87 µM in the assay with HCT-15 colon; 3.09 µM with UACC-257 melanoma; 0.548 µM in the assay on KM12 colon; 1.87 µM with DMS 114 small cell lung. For the same compound, in the assay on KM20L2 colon, the GI50 was 0.446 µM. For the same compound, the TGI in the assay with SK-MEL-28 melanoma was 16.7 µM and > 48.5 µM; with RXF 393 renal, 16.7 µM and > 44.7 µM; with UACC-257 melanoma it was 16.7 µM and > 49.2 µM; with KM12 colon, 2.57 µM; with SNB-78 CNS it was 32.5 µM; in the assay with DMS 114 small cell lung, 16.7 µM and 26.6 µM.
Take `O=C(/C=C\c1cccc2ccccc12)c1cccs1`: the TGI in the assay with SK-MEL-28 melanoma is 28 µM; in the assay on HCT-15 colon, 13.8 µM; in the assay on UACC-257 melanoma, 26.1 µM; in the assay with KM12 colon it was 17.6 µM; with SNB-78 CNS, 34.5 µM; in the assay with DMS 114 small cell lung, 14 µM. In the assay on KM20L2 colon, this compound gave a TGI of 22.5 µM.
As to `COC(=O)/C(C#N)=C1\CCC(O)N1C` (centres undefined), the TGI in the assay on SK-MEL-28 melanoma, in the assay on RXF 393 renal, in the assay with UACC-257 melanoma, in the assay on KM12 colon, in the assay with SNB-78 CNS and in the assay with DMS 114 small cell lung was above 100 µM in each case. The same compound had a TGI in the assay with KM20L2 colon above 100 µM.
For the compound `Nc1ncnc(NC2C=C(CO)C(O)C2O)c1[N+](=O)[O-]` (centres undefined), the TGI in the assay with SK-MEL-28 melanoma, with RXF 393 renal, in the assay with HCT-15 colon, in the assay with UACC-257 melanoma, with KM12 colon and with SNB-78 CNS was above 100 µM throughout. In addition, the TGI in the assay on DMS 114 small cell lung and in the assay on KM20L2 colon was above 100 µM throughout.
As to `COC(=O)C(=O)C(C(=O)C(=O)Nc1ccc(Cl)cc1C)c1nc2ccc(C(=O)c3ccccc3)cc2[nH]c1=O` (centres undefined), the TGI in the assay on RXF 393 renal, in the assay on HCT-15 colon, in the assay on UACC-257 melanoma, in the assay on KM12 colon, in the assay with SNB-78 CNS and in the assay with DMS 114 small cell lung was above 100 µM in each case. The TGI in the assay with KM20L2 colon was above 100 µM.
